Assay results taken from ChEMBL document CHEMBL1154339, “Pyranocoumarins: a new class of anti-hyperglycemic and anti-dyslipidemic agents” (Bioorg Med Chem Lett, 2009).
Calls of active or inactive are those of the source. The rule behind the calls is not given here.

Assays:
[1] = target: T1, Glucose-6-phosphatase catalytic subunit 1 (Homo sapiens) (UniProt P35575); assay: Inhibition of glucose 6 phosphatase assessed as inorganic phosphate release at 100 uM
T1 sequence (whole entry): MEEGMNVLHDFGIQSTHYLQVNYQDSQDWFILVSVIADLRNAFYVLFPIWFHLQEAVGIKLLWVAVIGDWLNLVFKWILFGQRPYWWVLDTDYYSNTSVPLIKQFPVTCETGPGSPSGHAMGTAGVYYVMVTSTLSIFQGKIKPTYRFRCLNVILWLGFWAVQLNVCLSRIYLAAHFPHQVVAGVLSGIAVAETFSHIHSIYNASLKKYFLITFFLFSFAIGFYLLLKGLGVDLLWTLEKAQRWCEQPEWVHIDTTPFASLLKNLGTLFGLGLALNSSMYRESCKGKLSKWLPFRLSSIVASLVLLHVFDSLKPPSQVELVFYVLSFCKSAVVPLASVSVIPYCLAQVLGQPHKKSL

[2] = Inhibition of glycogen phosphorylase assessed as inorganic phosphate release at 100 uM
[3] = target: Maltase-glucoamylase (Homo sapiens) (UniProt O43451); assay: Inhibition of alpha-glucosidase at 100 uM
[4] = target: Dipeptidyl peptidase 4 (Homo sapiens) (UniProt P27487); assay: Inhibition of DPP4 at 100 uM
[5] = target: T2, Tyrosine-protein phosphatase non-receptor type 1 (Homo sapiens) (UniProt P18031); assay: Inhibition of PTP1B at 100 uM
T2 sequence (whole entry): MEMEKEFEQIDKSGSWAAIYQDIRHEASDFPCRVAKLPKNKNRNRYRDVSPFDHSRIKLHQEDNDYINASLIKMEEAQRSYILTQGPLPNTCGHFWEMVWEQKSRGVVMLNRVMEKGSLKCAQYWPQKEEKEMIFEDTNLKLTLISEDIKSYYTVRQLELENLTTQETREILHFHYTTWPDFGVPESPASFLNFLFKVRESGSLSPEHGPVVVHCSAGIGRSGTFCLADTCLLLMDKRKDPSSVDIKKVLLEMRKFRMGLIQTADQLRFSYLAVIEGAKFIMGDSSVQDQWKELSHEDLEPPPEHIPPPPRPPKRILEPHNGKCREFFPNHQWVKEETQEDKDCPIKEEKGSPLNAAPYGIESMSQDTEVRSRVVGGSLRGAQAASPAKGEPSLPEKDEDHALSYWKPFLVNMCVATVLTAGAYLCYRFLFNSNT

Rattus norvegicus [6] = assay: Antidyslipidemic activity against triton WR-1339-induced hyperlipidemia in Charles Foster rat assessed as reduction in plasma total cholesterol level at 100 mg/kg, po after 18 hrs; format: functional; design: scale not given: the % may be the effect or the level left
Rattus norvegicus [7] = assay: Antidyslipidemic activity against triton WR-1339-induced hyperlipidemia in Charles Foster rat assessed as reduction in plasma phospholipid level at 100 mg/kg, po after 18 hrs; format: functional; design: scale not given: the % may be the effect or the level left
Rattus norvegicus [8] = assay: Antidyslipidemic activity against triton WR-1339-induced hyperlipidemia in Charles Foster rat assessed as reduction in plasma triglyceride level at 100 mg/kg, po after 18 hrs; format: functional; design: scale not given: the % may be the effect or the level left
Rattus norvegicus [9] = assay: Antihyperglycemic activity in sucrose loaded Charles Foster/Wistar rat model assessed as reduction in blood glucose level at 100 mg/kg; format: functional; design: scale not given: the % may be the effect or the level left
Rattus norvegicus [10] = assay: Antihyperglycemic activity in sucrose challenged streptozotocin-induced diabetic Sprague-Dawley rat model assessed as reduction in blood glucose level at 100 mg/kg after 24 hrs; format: functional; design: scale not given: the % may be the effect or the level left
Mus musculus [11] = assay: Antihyperglycemic in leptin receptor deficient mouse C57BL/KsBom-db assessed as blood glucose lowering activity at 100 mg/kg after 5 days by oral glucose tolerance test; format: functional
Mus musculus [12] = assay: Antihyperglycemic in leptin receptor deficient mouse C57BL/KsBom-db assessed as blood glucose lowering activity at 100 mg/kg after 10 days by oral glucose tolerance test; format: functional
[13] = target: T3, Tyrosine-protein phosphatase non-receptor type 1 (Homo sapiens, UniProt P18031); assay: Inhibition of PTP1B
T3 sequence (P18031 whole entry): T2 sequence (whole entry)

Sequence of Dipeptidyl peptidase 4 (Homo sapiens) (P27487 whole entry, looked up): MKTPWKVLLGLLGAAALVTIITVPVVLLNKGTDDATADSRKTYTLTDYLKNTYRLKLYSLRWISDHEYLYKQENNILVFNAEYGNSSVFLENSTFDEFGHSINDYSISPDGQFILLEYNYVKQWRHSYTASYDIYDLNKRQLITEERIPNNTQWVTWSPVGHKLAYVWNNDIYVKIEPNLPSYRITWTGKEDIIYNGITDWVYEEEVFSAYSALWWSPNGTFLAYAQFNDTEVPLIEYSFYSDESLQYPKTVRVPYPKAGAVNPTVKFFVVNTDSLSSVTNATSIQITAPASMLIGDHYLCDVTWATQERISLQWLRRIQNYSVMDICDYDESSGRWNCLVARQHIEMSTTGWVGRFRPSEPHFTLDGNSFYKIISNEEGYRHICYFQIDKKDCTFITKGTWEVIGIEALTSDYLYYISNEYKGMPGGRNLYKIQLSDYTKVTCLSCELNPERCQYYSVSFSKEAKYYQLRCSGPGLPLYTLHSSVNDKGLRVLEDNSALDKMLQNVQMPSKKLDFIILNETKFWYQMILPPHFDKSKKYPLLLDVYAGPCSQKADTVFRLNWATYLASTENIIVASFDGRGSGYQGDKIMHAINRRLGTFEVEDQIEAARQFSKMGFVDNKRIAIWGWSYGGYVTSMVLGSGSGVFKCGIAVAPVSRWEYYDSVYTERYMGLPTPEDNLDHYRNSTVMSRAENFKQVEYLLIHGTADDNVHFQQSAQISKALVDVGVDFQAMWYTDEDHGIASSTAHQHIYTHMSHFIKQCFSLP
Sequence of Maltase-glucoamylase (Homo sapiens) (O43451 whole entry, looked up): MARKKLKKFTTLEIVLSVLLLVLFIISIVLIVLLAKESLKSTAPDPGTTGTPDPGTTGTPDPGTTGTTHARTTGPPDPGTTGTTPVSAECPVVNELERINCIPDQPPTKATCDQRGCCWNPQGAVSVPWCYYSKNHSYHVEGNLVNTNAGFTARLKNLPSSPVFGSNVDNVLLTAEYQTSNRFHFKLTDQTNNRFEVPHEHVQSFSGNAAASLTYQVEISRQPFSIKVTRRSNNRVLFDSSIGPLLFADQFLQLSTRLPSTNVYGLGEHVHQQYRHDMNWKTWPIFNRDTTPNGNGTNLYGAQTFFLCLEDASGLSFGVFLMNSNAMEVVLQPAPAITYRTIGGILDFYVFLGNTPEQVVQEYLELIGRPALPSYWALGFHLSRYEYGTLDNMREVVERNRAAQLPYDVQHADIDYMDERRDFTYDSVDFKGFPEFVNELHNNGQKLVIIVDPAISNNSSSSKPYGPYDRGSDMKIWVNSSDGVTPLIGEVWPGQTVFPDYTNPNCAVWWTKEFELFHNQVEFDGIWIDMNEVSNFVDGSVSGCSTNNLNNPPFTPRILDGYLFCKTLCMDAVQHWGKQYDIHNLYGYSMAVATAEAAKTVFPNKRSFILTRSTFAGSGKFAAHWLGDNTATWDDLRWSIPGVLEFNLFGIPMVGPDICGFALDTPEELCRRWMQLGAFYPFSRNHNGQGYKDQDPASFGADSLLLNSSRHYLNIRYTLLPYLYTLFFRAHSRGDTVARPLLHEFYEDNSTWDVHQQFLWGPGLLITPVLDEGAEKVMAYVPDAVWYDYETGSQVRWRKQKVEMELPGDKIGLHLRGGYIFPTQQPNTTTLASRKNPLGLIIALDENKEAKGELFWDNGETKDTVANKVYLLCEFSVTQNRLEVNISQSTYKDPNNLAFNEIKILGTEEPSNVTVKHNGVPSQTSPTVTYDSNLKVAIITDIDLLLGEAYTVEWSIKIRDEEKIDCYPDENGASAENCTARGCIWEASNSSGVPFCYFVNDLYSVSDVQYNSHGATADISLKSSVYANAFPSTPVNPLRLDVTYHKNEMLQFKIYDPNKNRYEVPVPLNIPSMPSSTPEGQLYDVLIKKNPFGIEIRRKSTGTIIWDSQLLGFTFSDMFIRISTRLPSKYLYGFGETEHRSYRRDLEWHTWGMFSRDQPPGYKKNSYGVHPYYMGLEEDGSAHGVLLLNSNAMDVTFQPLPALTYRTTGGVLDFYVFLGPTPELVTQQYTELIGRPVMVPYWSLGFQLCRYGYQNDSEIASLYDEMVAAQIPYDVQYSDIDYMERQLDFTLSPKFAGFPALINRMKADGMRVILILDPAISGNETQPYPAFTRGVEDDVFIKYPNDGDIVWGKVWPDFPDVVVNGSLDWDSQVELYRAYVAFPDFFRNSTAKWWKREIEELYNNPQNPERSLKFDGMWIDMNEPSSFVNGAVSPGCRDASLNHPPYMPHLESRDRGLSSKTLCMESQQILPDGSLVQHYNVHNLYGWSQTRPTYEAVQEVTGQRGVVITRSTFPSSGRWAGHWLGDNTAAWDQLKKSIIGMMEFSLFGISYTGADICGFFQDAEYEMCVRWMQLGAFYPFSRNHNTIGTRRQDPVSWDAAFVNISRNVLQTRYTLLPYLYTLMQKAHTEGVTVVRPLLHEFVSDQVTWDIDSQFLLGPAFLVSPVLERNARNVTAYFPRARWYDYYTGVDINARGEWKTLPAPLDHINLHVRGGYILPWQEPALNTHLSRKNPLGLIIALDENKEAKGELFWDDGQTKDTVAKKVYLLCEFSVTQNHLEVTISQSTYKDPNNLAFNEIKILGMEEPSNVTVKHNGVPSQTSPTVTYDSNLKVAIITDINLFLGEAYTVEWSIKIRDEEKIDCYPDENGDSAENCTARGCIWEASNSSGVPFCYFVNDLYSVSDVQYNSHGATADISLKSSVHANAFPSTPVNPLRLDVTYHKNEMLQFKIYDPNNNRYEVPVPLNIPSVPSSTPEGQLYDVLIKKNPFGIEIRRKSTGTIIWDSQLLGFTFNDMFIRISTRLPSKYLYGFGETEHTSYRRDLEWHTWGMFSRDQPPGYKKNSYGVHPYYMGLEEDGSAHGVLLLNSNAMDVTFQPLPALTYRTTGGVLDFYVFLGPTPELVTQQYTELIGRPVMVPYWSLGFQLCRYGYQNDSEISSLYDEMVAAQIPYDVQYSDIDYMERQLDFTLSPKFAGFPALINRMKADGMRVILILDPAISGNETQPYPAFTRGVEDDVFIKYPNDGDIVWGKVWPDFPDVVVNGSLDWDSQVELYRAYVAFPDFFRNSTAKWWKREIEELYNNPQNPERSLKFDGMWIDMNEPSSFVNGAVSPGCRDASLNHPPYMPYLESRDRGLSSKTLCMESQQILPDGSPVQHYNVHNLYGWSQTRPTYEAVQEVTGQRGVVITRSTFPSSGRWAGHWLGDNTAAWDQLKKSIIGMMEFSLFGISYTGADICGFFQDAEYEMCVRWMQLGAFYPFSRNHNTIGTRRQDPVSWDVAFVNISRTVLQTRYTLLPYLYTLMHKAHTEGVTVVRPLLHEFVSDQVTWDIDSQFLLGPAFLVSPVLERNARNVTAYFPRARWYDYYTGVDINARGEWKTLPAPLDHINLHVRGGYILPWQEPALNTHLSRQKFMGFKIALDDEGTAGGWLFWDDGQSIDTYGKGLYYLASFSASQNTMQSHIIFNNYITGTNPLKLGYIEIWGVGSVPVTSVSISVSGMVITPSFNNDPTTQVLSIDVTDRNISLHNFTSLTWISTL

SMILES	inhibition [1] [%]	inhibition [2]	inhibition [3]	inhibition [4]	inhibition [5] [%]	IC50 [13] [µM]	Activity (Rattus norvegicus [6])	Activity (Rattus norvegicus [7])	Activity (Rattus norvegicus [8])	Activity (Rattus norvegicus [9]) [%]	Activity (Rattus norvegicus [10]) [%]	Activity (Mus musculus [11]) [%]	Activity (Mus musculus [12]) [%]
Cc1cc(=O)oc2c3c(ccc12)OCC(CN1CCN(c2ccccc2)CC1)(CN1CCN(c2ccccc2)CC1)C3=O	21.5	22.1%	15.9%	15.2%	28.7	–	–	–	–	–	–	–	–
Cc1ccc(C)c(OCCCC(C)(C)C(=O)O)c1 [GEMFIBROZIL]	–	–	–	–	–	–	37.1%	39.1%	36.1%	–	–	–	–
CCN(CC)CC1(CN(CC)CC)COc2ccc3c(C)cc(=O)oc3c2C1=O	9.45	12.2%	8.5%	8.1%	41.3	–	–	–	–	–	–	–	–
CCCCN(CCCC)CC1(CN(CCCC)CCCC)COc2ccc3c(C)cc(=O)oc3c2C1=O	20.4	11.1%	inactive	11.4%	43.6	–	–	–	–	–	–	–	–
Cc1cc(=O)oc2c3c(ccc12)OCC(CN1CCN(c2ccccn2)CC1)(CN1CCN(c2ccccn2)CC1)C3=O	28	11%	15.8%	9.8%	41.3	–	–	–	–	–	–	–	–
Cc1cc(=O)oc2c3c(ccc12)OCC(CN1CCOCC1)(CN1CCOCC1)C3=O	6.78	12.8%	8.3%	8.8%	24.7	–	–	–	–	–	–	–	–
CCOCC1(CN2CCN(c3ccccn3)CC2)COc2ccc3c(C)cc(=O)oc3c2C1=O (stereo not drawn)	9.67	30.1%	11.3%	inactive	54.5	76.2	–	–	–	–	–	–	–
Cc1cc(=O)oc2c3c(ccc12)OCC(CN1CCN(C)CC1)(CN1CCN(C)CC1)C3=O	13	10.2%	6.4%	12.5%	22	–	–	–	–	–	–	–	–
CCCCN(CCCC)CC1(COCC)COc2ccc3c(C)cc(=O)oc3c2C1=O (stereo not drawn)	11.1	8.7%	27.9%	inactive	80.5	40.5	Active	Active	Active	30.6	24.4	–	–
Cc1cc(=O)oc2c3c(ccc12)OCC(CO)(CN1CCOCC1)C3=O (stereo not drawn)	3.5	inactive	34.3%	12%	83.3	52.4	Active	Active	Active	28.2	25.3	–	–
CCOCC1(CN(CC)CC)COc2ccc3c(C)cc(=O)oc3c2C1=O (stereo not drawn)	24.2	inactive	inactive	inactive	74.1	90.4	Active	Active	Active	–	–	–	–
CCOCC1(CN2CCN(c3ccccc3)CC2)COc2ccc3c(C)cc(=O)oc3c2C1=O (stereo not drawn)	31.7	inactive	16.2%	inactive	62.3	70.6	–	–	–	–	–	–	–

More lines, main results first:

inhibition [1] [%]	inhibition [2]	inhibition [3]	inhibition [4]	inhibition [5] [%]	IC50 [13] [µM]	SMILES	Activity (Rattus norvegicus [6])	Activity (Rattus norvegicus [7])	Activity (Rattus norvegicus [8])	Activity (Rattus norvegicus [9]) [%]	Activity (Rattus norvegicus [10]) [%]	Activity (Mus musculus [11]) [%]	Activity (Mus musculus [12]) [%]
13.8	17.2%	7.3%	6.8%	33.3	–	Cc1cc(=O)oc2c3c(ccc12)OCC(CN1CCCCC1)(CN1CCCCC1)C3=O	–	–	–	–	–	–	–
12.4	8.4%	inactive	inactive	92.2	24.5	CCOCC1(CN2CCOCC2)COc2ccc3c(C)cc(=O)oc3c2C1=O (stereo not drawn)	Active	Active	Active	35.5	35.5	21.1	38
17.4	26.9%	inactive	7.9%	70.3	65.5	CCOCC1(CN2CCN(C)CC2)COc2ccc3c(C)cc(=O)oc3c2C1=O (stereo not drawn)	Active	Active	Active	32.5	18.7	–	–
8.31	8.3%	12%	13.2%	72.1	82.7	CCOCC1(CN2CCCC2)COc2ccc3c(C)cc(=O)oc3c2C1=O (stereo not drawn)	–	–	–	31.8	28.8	–	–
5.83	8.3%	22.1%	8.3%	74.6	56.7	Cc1cc(=O)oc2c3c(ccc12)OCC(CO)(CN1CCCC1)C3=O (stereo not drawn)	–	–	–	30.3	24	–	–
7.36	inactive	37.3%	inactive	64	62.1	Cc1cc(=O)oc2c3c(ccc12)OCC(CO)(CN1CCCCC1)C3=O (stereo not drawn)	Active	Active	Active	–	–	–	–
8.28	15.2%	inactive	8.2%	29.8	–	Cc1cc(=O)oc2c3c(ccc12)OCC(CN1CCCC1)(CN1CCCC1)C3=O	–	–	–	–	–	–	–
6.56	8.5%	inactive	12.6%	88.5	36.2	CCOCC1(CN2CCCCC2)COc2ccc3c(C)cc(=O)oc3c2C1=O (stereo not drawn)	Active	Active	Active	38.1	37.7	19.5	42
